Measurements published in ChEMBL document CHEMBL3885881, “DrugMatrix”.

Species: Rattus norvegicus
Assay: DrugMatrix - Regimen: Daily Repeat
Type: toxicity, organism-based, Sprague-Dawley
Parameters: regimen Daily Repeat, gender Male, age 6-8 weeks
Conditions: in vivo, po, route oral GAVAGE, vehicle 100 % WATER; for ABSOLUTE BASOPHIL / ABSOLUTE EOSINOPHIL / ABSOLUTE LYMPHOCYTE / ABSOLUTE MONOCYTE / ABSOLUTE SEGMENTED NEUTROPHIL / BASOPHIL / EOSINOPHIL / ERYTHROCYTE COUNT / HEMATOCRIT / HEMOGLOBIN / LEUKOCYTE COUNT / LYMPHOCYTE / MEAN CORPUSCULAR HEMOGLOBIN / MEAN CORPUSCULAR HEMOGLOBIN CONCENTRATION / MEAN CORPUSCULAR VOLUME / MONOCYTE / NEUTROPHIL / NUCLEATED RED BLOOD CELLS / PLATELET COUNT: tissue Blood; for ALANINE AMINOTRANSFERASE / ALBUMIN / ALKALINE PHOSPHATASE / ASPARTATE AMINOTRANSFERASE / BLOOD UREA NITROGEN / CARBON DIOXIDE / CHLORIDE / CHOLESTEROL / CREATINE PHOSPHOKINASE / CREATININE / GLUCOSE / LACTATE DEHYDROGENASE / LIPASE / PHOSPHORUS / POTASSIUM / SODIUM / TOTAL BILIRUBIN / TOTAL PROTEIN / URIC ACID: tissue Plasma
[1] = 200 mg/kg, 120 h, dose level Low, time 5 day
[2] = 2000 mg/kg, 72 h, dose level High, time 3 day
[3] = 2000 mg/kg, 120 h, dose level High, time 5 day

SMILES: CC(O)CO (centres undefined) [PROPYLENE GLYCOL]
- ABSOLUTE BASOPHIL [1]: 0 CELLS/uL
- ABSOLUTE EOSINOPHIL [1]: 0 CELLS/uL
- ABSOLUTE LYMPHOCYTE [1]: 15454 CELLS/uL
- ABSOLUTE MONOCYTE [1]: 284.33 CELLS/uL
- ABSOLUTE SEGMENTED NEUTROPHIL [1]: 1261.67 CELLS/uL
- BASOPHIL [1]: 0%
- EOSINOPHIL [1]: 0%
- ERYTHROCYTE COUNT [1]: 5.7 x10E6/uL
- HEMATOCRIT [1]: 35.5%
- HEMOGLOBIN [1]: 14.1 G/DL
- LEUKOCYTE COUNT [1]: 17 x10E3/uL
- LYMPHOCYTE [1]: 91%
- MEAN CORPUSCULAR HEMOGLOBIN [1]: 24.83 pg
- MEAN CORPUSCULAR HEMOGLOBIN CONCENTRATION [1]: 39.73 G/DL
- MEAN CORPUSCULAR VOLUME [1]: 62.37 fL
- MONOCYTE [1]: 1.67%
- NEUTROPHIL [1]: 7.33%
- NUCLEATED RED BLOOD CELLS [1]: 0 /100WBC
- PLATELET COUNT [1]: 1288 x10E3/uL
- ALANINE AMINOTRANSFERASE [1]: 49.33 u/L
- ALBUMIN [1]: 4.37 G/DL
- ALKALINE PHOSPHATASE [1]: 314.33 u/L
- ASPARTATE AMINOTRANSFERASE [1]: 76.33 u/L
- BLOOD UREA NITROGEN [1]: 18 mg/dL
- CARBON DIOXIDE [1]: 25.33 mmol/L
- CHLORIDE [1]: 101 MEQ/L
- CHOLESTEROL [1]: 73 mg/dL
- CREATINE PHOSPHOKINASE [1]: 227.67 u/L
- CREATININE [1]: 0.16 mg/dL
- GLUCOSE [1]: 165.67 mg/dL
- LACTATE DEHYDROGENASE [1]: 181.67 u/L
- LIPASE [1]: 8.33 u/L
- PHOSPHORUS [1]: 12.87 mg/dL
- POTASSIUM [1]: 6.99 MEQ/L
- SODIUM [1]: 143.7 MEQ/L
- TOTAL BILIRUBIN [1]: 0.23 mg/dL
- TOTAL PROTEIN [1]: 6.03 G/DL
- URIC ACID [1]: 2.13 mg/dL
- ABSOLUTE BASOPHIL [2]: 0 CELLS/uL
- ABSOLUTE EOSINOPHIL [2]: 0 CELLS/uL
- ABSOLUTE LYMPHOCYTE [2]: 11801.33 CELLS/uL
- ABSOLUTE MONOCYTE [2]: 112 CELLS/uL
- ABSOLUTE SEGMENTED NEUTROPHIL [2]: 1053.33 CELLS/uL
- BASOPHIL [2]: 0%
- EOSINOPHIL [2]: 0%
- ERYTHROCYTE COUNT [2]: 5.54 x10E6/uL
- HEMATOCRIT [2]: 34.73%
- HEMOGLOBIN [2]: 13.73 G/DL
- LEUKOCYTE COUNT [2]: 12.97 x10E3/uL
- LYMPHOCYTE [2]: 90.33%
- MEAN CORPUSCULAR HEMOGLOBIN [2]: 24.8 pg
- MEAN CORPUSCULAR HEMOGLOBIN CONCENTRATION [2]: 39.53 G/DL
- MEAN CORPUSCULAR VOLUME [2]: 62.77 fL
- MONOCYTE [2]: 1%
- NEUTROPHIL [2]: 8.67%
- NUCLEATED RED BLOOD CELLS [2]: 0 /100WBC
- PLATELET COUNT [2]: 1166 x10E3/uL
- ALANINE AMINOTRANSFERASE [2]: 53.33 u/L
- ALBUMIN [2]: 4.3 G/DL
- ALKALINE PHOSPHATASE [2]: 390 u/L
- ASPARTATE AMINOTRANSFERASE [2]: 82 u/L
- BLOOD UREA NITROGEN [2]: 14.33 mg/dL
- CARBON DIOXIDE [2]: 23 mmol/L
- CHLORIDE [2]: 100.67 MEQ/L
- CHOLESTEROL [2]: 65.33 mg/dL
- CREATINE PHOSPHOKINASE [2]: 195 u/L
- CREATININE [2]: 0.18 mg/dL
- GLUCOSE [2]: 154.67 mg/dL
- LACTATE DEHYDROGENASE [2]: 119.33 u/L
- LIPASE [2]: 10.67 u/L
- PHOSPHORUS [2]: 12.87 mg/dL
- POTASSIUM [2]: 6.42 MEQ/L
- SODIUM [2]: 143.1 MEQ/L
- TOTAL BILIRUBIN [2]: 0.17 mg/dL
- TOTAL PROTEIN [2]: 5.93 G/DL
- URIC ACID [2]: 1.53 mg/dL
- ABSOLUTE BASOPHIL [3]: 0 CELLS/uL
- ABSOLUTE EOSINOPHIL [3]: 46 CELLS/uL
- ABSOLUTE LYMPHOCYTE [3]: 14960.67 CELLS/uL
- ABSOLUTE MONOCYTE [3]: 42.67 CELLS/uL
- ABSOLUTE SEGMENTED NEUTROPHIL [3]: 1217.33 CELLS/uL
- BASOPHIL [3]: 0%
- EOSINOPHIL [3]: 0.33%
- ERYTHROCYTE COUNT [3]: 5.65 x10E6/uL
- HEMATOCRIT [3]: 35.27%
- HEMOGLOBIN [3]: 14 G/DL
- LEUKOCYTE COUNT [3]: 16.27 x10E3/uL
- LYMPHOCYTE [3]: 91.67%
- MEAN CORPUSCULAR HEMOGLOBIN [3]: 24.83 pg
- MEAN CORPUSCULAR HEMOGLOBIN CONCENTRATION [3]: 39.7 G/DL
- MEAN CORPUSCULAR VOLUME [3]: 62.5 fL
- MONOCYTE [3]: 0.33%
- NEUTROPHIL [3]: 7.67%
- NUCLEATED RED BLOOD CELLS [3]: 0 /100WBC
- PLATELET COUNT [3]: 1315.33 x10E3/uL
- ALANINE AMINOTRANSFERASE [3]: 52 u/L
- ALBUMIN [3]: 4.3 G/DL
- ALKALINE PHOSPHATASE [3]: 327.33 u/L
- ASPARTATE AMINOTRANSFERASE [3]: 76.67 u/L
- BLOOD UREA NITROGEN [3]: 17.33 mg/dL
- CARBON DIOXIDE [3]: 27 mmol/L
- CHLORIDE [3]: 102 MEQ/L
- CHOLESTEROL [3]: 69 mg/dL
- CREATINE PHOSPHOKINASE [3]: 218 u/L
- CREATININE [3]: 0.16 mg/dL
- GLUCOSE [3]: 159.33 mg/dL
- LACTATE DEHYDROGENASE [3]: 121 u/L
- LIPASE [3]: 8.67 u/L
- PHOSPHORUS [3]: 12.4 mg/dL
- POTASSIUM [3]: 5.9 MEQ/L
- SODIUM [3]: 144.67 MEQ/L
- TOTAL BILIRUBIN [3]: 0.17 mg/dL
- TOTAL PROTEIN [3]: 6.07 G/DL
- URIC ACID [3]: 1.43 mg/dL
